Assay results reported in US20140094424A1, “MICROBICIDAL COMPOSITIONS AND METHODS OF PRODUCTION USE THEREOF” (priority 2011, published 2014).
Where two headings read alike, the source gives them in different places.

Assays:
Assay type in all cases: cell-based
[1] = system: Ralstonia pickettii (AU)
Description: The stock organisms were thawed and subbed prior to beginning the MBC test. Molds were subbed to SDA plates one week before, and the bacteria were subbed to TAT agar plates 24 hours prior to the start of the test. All plates were incubated at 32 degrees C.
Each bacterial organism was inoculated into 40 ml sterile saline in a centrifuge tube to create a density of MacFarland #1. Two serial dilutions of 1:100 were then made, resulting in 10^−2 and 10^−4 concentrations. Each dilution was vortexed before it was sampled, and sterile Eppendorf pipette tips were used to make each transfer. The 10^−4 dilution was spiral plated to yield the initial inoculum concentration.
MBC trays were set up with the prepared test reagent. Using a Matrix pipettor, 100 μl aliquots of reagent were distributed into the wells, diluting the amount of preservative from 100% to 10% increments, using unpreserved reagent as the diluent. In one row, 100% non-preserved reagent acted as a positive control and served as a benchmark for a full mat of growth. In well #12H, 100 μl unpreserved reagent was pipetted, and this well was not inoculated with organisms, as it served as the negative control. Once all of the trays were prepared, the prepared bacteria/mold suspensions were poured into the MBC inoculating trays. These were placed onto the reagent trays, and 0.01 ml inoculum was introduced into the 100 μl of reagent in each well.
This was done by dipping a sterile cotton swab into each well, and absorbing all of the liquid in the well. The swab was rolled onto a TAT agar plate ensuring that the entire swab touches the agar. Plates ware incubated at 32 degrees C. for 48 hours to 7 days, depending on the organism. Observations for growth were performed by a scoring matrix using + for a full mat, +/− for some growth, a numerical value for an actual colony count, and—for no growth.
Below are tables that contain the data obtained in Example 1. The MBC test is scored by (+) indicating a full grown mat of organisms, equivalent to the organisms in the unpreserved reagent. (+/−) indicates there is some kill evident disturbing that mat or bringing the quantities down to an almost countable level. An actual number is the actual number of colonies growing at that concentration of preservative. (−) indicates no growth found. The MBC trays were stored at room temperature for the entire test.
The materials and methods and analysis of the MBC test were the same as in Example 1.

[2] = system: Pseudomonas fluorescens (D); experiment: MBC (minimum bactericidal concentration) test in Wash NEXT reagent
[3] = system: Pseudomonas aeruginosa (L); experiment: as above

**Q.** What does the source list for gentamicin?
**A.** MBC test growth score ([1]; 10% preservative, 8 hour): −; MBC test growth score ([1]; 10% preservative, 24 hour): −; MBC test growth score ([1]; 10% preservative, 48 hour): −; MBC test growth score ([1]; 10% preservative, 72 hour): −; MBC test growth score ([1]; 20% preservative, 8 hour): −; MBC test growth score ([1]; 20% preservative, 24 hour): −; MBC test growth score ([1]; 20% preservative, 48 hour): −; MBC test growth score ([1]; 20% preservative, 72 hour): −; MBC test growth score ([1]; 30% preservative, 8 hour): −; MBC test growth score ([1]; 30% preservative, 24 hour): −; MBC test growth score ([1]; 30% preservative, 48 hour): −; MBC test growth score ([1]; 30% preservative, 72 hour): −; MBC test growth score ([1]; 40% preservative, 8 hour): −; MBC test growth score ([1]; 40% preservative, 24 hour): −; MBC test growth score ([1]; 40% preservative, 48 hour): −; MBC test growth score ([1]; 40% preservative, 72 hour): −; MBC test growth score ([1]; 50% preservative, 8 hour): −; MBC test growth score ([1]; 50% preservative, 24 hour): −; MBC test growth score ([1]; 50% preservative, 48 hour): −; MBC test growth score ([1]; 50% preservative, 72 hour): −; MBC test growth score ([1]; 60% preservative, 8 hour): −; MBC test growth score ([1]; 60% preservative, 24 hour): −; MBC test growth score ([1]; 60% preservative, 48 hour): −; MBC test growth score ([1]; 60% preservative, 72 hour): −; MBC test growth score ([1]; 70% preservative, 8 hour): −; MBC test growth score ([1]; 70% preservative, 24 hour): −; MBC test growth score ([1]; 70% preservative, 48 hour): −; MBC test growth score ([1]; 70% preservative, 72 hour): −; MBC test growth score ([1]; 80% preservative, 8 hour): −; MBC test growth score ([1]; 80% preservative, 24 hour): −; MBC test growth score ([1]; 80% preservative, 48 hour): −; MBC test growth score ([1]; 80% preservative, 72 hour): −; MBC test growth score ([1]; 90% preservative, 8 hour): −; MBC test growth score ([1]; 90% preservative, 24 hour): −; MBC test growth score ([1]; 90% preservative, 48 hour): −; MBC test growth score ([1]; 90% preservative, 72 hour): −; MBC test growth score ([1]; 100% preservative, 8 hour): −; MBC test growth score ([1]; 100% preservative, 24 hour): −; MBC test growth score ([1]; 100% preservative, 48 hour): −; MBC test growth score ([1]; 100% preservative, 72 hour): −; MBC test growth score ([2]; 10% preservative, 8 hour): +; MBC test growth score ([2]; 10% preservative, 24 hour): +; MBC test growth score ([2]; 10% preservative, 48 hour): +/−; MBC test growth score ([2]; 10% preservative, 72 hour): 15; MBC test growth score ([2]; 20% preservative, 8 hour): +; MBC test growth score ([2]; 20% preservative, 24 hour): +; MBC test growth score ([2]; 20% preservative, 48 hour): +/−; MBC test growth score ([2]; 20% preservative, 72 hour): 12; MBC test growth score ([2]; 30% preservative, 8 hour): +; MBC test growth score ([2]; 30% preservative, 24 hour): +/−; MBC test growth score ([2]; 30% preservative, 48 hour): +/−; MBC test growth score ([2]; 30% preservative, 72 hour): −; MBC test growth score ([2]; 40% preservative, 8 hour): +; MBC test growth score ([2]; 40% preservative, 24 hour): +/−; MBC test growth score ([2]; 40% preservative, 48 hour): +/−; MBC test growth score ([2]; 40% preservative, 72 hour): −; MBC test growth score ([2]; 50% preservative, 8 hour): +/−; MBC test growth score ([2]; 50% preservative, 24 hour): 14; MBC test growth score ([2]; 50% preservative, 48 hour): +/−; MBC test growth score ([2]; 50% preservative, 72 hour): −; MBC test growth score ([2]; 60% preservative, 8 hour): +/−; MBC test growth score ([2]; 60% preservative, 24 hour): 13; MBC test growth score ([2]; 60% preservative, 48 hour): +/−; MBC test growth score ([2]; 60% preservative, 72 hour): −; MBC test growth score ([2]; 70% preservative, 8 hour): +/−; MBC test growth score ([2]; 70% preservative, 24 hour): 5; MBC test growth score ([2]; 70% preservative, 48 hour): −; MBC test growth score ([2]; 70% preservative, 72 hour): −; MBC test growth score ([2]; 80% preservative, 8 hour): +/−; MBC test growth score ([2]; 80% preservative, 24 hour): 5; MBC test growth score ([2]; 80% preservative, 48 hour): −; MBC test growth score ([2]; 80% preservative, 72 hour): −; MBC test growth score ([2]; 90% preservative, 8 hour): +/−; MBC test growth score ([2]; 90% preservative, 24 hour): 1; MBC test growth score ([2]; 90% preservative, 48 hour): −; MBC test growth score ([2]; 90% preservative, 72 hour): −; MBC test growth score ([2]; 100% preservative, 8 hour): +/−; MBC test growth score ([2]; 100% preservative, 24 hour): −; MBC test growth score ([2]; 100% preservative, 48 hour): −; MBC test growth score ([2]; 100% preservative, 72 hour): −; MBC test growth score ([3]; 10% preservative, 8 hour): +; MBC test growth score ([3]; 10% preservative, 24 hour): +; MBC test growth score ([3]; 10% preservative, 48 hour): +/−; MBC test growth score ([3]; 10% preservative, 72 hour): 8; MBC test growth score ([3]; 20% preservative, 8 hour): +; MBC test growth score ([3]; 20% preservative, 24 hour): +; MBC test growth score ([3]; 20% preservative, 48 hour): +/−; MBC test growth score ([3]; 20% preservative, 72 hour): 4; MBC test growth score ([3]; 30% preservative, 8 hour): +; MBC test growth score ([3]; 30% preservative, 24 hour): +/−; MBC test growth score ([3]; 30% preservative, 48 hour): +/−; MBC test growth score ([3]; 30% preservative, 72 hour): 2; MBC test growth score ([3]; 40% preservative, 8 hour): +; MBC test growth score ([3]; 40% preservative, 24 hour): +/−; MBC test growth score ([3]; 40% preservative, 48 hour): +/−; MBC test growth score ([3]; 40% preservative, 72 hour): 1; MBC test growth score ([3]; 50% preservative, 8 hour): +; MBC test growth score ([3]; 50% preservative, 24 hour): +/−; MBC test growth score ([3]; 50% preservative, 48 hour): +/−; MBC test growth score ([3]; 50% preservative, 72 hour): −; MBC test growth score ([3]; 60% preservative, 8 hour): +/−; MBC test growth score ([3]; 60% preservative, 24 hour): +/−; MBC test growth score ([3]; 60% preservative, 48 hour): +/−; MBC test growth score ([3]; 60% preservative, 72 hour): −; MBC test growth score ([3]; 70% preservative, 8 hour): +/−; MBC test growth score ([3]; 70% preservative, 24 hour): +/−; MBC test growth score ([3]; 70% preservative, 48 hour): +/−; MBC test growth score ([3]; 70% preservative, 72 hour): −; MBC test growth score ([3]; 80% preservative, 8 hour): +/−; MBC test growth score ([3]; 80% preservative, 24 hour): +/−; MBC test growth score ([3]; 80% preservative, 48 hour): +/−; MBC test growth score ([3]; 80% preservative, 72 hour): −; MBC test growth score ([3]; 90% preservative, 8 hour): +/−; MBC test growth score ([3]; 90% preservative, 24 hour): +/−; MBC test growth score ([3]; 90% preservative, 48 hour): −; MBC test growth score ([3]; 90% preservative, 72 hour): −; MBC test growth score ([3]; 100% preservative, 8 hour): +/−; MBC test growth score ([3]; 100% preservative, 24 hour): +/−; MBC test growth score ([3]; 100% preservative, 48 hour): −; MBC test growth score ([3]; 100% preservative, 72 hour): −
